Assay [1] has as its system Myotonic Dystrophy 1 affected patient fibroblasts (Coriel GM04602; 1600 CTG repeats). The assay is described as follows: DM1 foci reduction assay (EC50 assay; CAG10-Cy3 FISH, foci per nucleus). Type of assay: cell-based. The essentials:
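Foci per nucleus counted by 20× imaging of 4 areas per well, after overnight FISH with 5 nM CAG10-Cy3 and DAPI staining of fixed, permeabilized cells. DM1 fibroblasts (GM04602, 1600 CTG) were dosed 48 h at 37 °C, 8 points, 3-fold dilutions, 3 μM top concentration.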

For assay [2], the system named is F35T cells. The assay is described as follows: Foci reduction in FECD (CAG10-Cy3 FISH, foci per nucleus). Format: cell-based. The procedure:
F35T cells were cultured in media containing Opti-MEM (ThermoFisher) supplemented with 8% FBS, 20 μg/mL ascorbic acid, […] CaCl2, 0.08% chondroitin sulfate, 1×Pen/Strep, 100 μg/mL bovine pituitary extract, 5 ng/mL epidermal growth factor, and 20 ng/mL nerve growth factor. Throughout the culture, cells were maintained in an incubator at 37° C. and 5% CO2. Media was refreshed every 48 hours. Once cells reached adequate confluency, they were harvested and seeded in 96 well plates with a density of 5000 cells per well in 200 μL of the supplemented Opti-MEM media. Cells were returned to the incubator and left to settle for 24 hours at 37° C. and 5% CO2. Cells were then treated in 8-point dose response with compounds or negative controls and incubated for 48 hours at 37° C. and 5% CO2. After treatment, cells were fixed with 4% PFA for 20 minutes at room temperature, followed by permeabilization with 70% ethanol. Cells were incubated at −20° C. for a minimum of 1 hour and maximum of 72 hours, after which the ethanol was removed, and cells were washed with PBS. Cells were rehydrated with 30% formamide and 2×SSC buffer for 10 minutes at room temperature. Cells were then incubated overnight at 37° C. in the hybridization solution containing 30% formamide, 2×SSC, 55 mg/mL dextran sulfate, 2.75 mg/mL bovine serum albumin, 0.2 μg/mL Herring sperm DNA, 1% vanadyl-ribonucleoside complex, and 0.05% 10 μM CAG10-Cy3 probe. Cells were washed twice with 30% formamide in 2×SSC, incubating the cells while shaking with the second wash at 37° C. and 200 rpm for 60 minutes. Cells were stained with 5 mg/mL DAPI 1:1000 in PBS, incubating at room temperature for 5 minutes. Cells were then washed with PBS and sealed with adhesive foil, with each well containing a final volume of 150 μL PBS. Cells were imaged on a Cytation 5 and analyzed on a foci per nucleus basis.

Where [3] appears, read: Homo sapiens, Fibroblast; DM1 patient fibroblasts, 48 h treatment, foci per nucleus; read-out: DM1 EC50, 48 h.
Where [4] appears, read: F35T cells, 48 h treatment, foci per nucleus; read-out: FECD EC50, 48 h.
[5] abbreviates: Homo sapiens, Fibroblast; DM1 patient fibroblasts, foci per nucleus, 48 h treatment; read-out: DM1 EC50, 48 h.
Where [6] appears, read: F35T cells, foci per nucleus, 48 h treatment; read-out: FECD EC50, 48 h.

The structures appear in SMILES notation. Read-outs that look alike come from different tables or passages of the source.

One may read the EC50 as the concentration that produces a half-maximal response. Take `CCCNC(=O)CCNC(=O)c1nc(NC(=O)c2cc(NC(=O)CCNC(=O)c3nc(NC(=O)CCCNC(=O)c4cc(NC(=O)c5nc(NC(=O)CCNC(=O)c6cc(NC(=O)c7nccn7C)cn6C)cn5C)cn4CCCN=[N+]=[N-])cn3C)cn2C)cn1C` [Compound B-271]: the EC50 in assay [1] (setting [3]) and in assay [2] (setting [4]) was less than 100 nM in each case.

Turning to `CN(C)CCCCNC(=O)c1nc(NC(=O)c2cc(NC(=O)CCNC(=O)c3nc(NC(=O)C[C@H](CNC(=O)c4cc(NC(=O)c5nc(NC(=O)CCNC(=O)c6cc(NC(=O)c7nccn7C)cn6C)cn5C)cn4C)NC(=O)c4ccccc4)cn3C)cn2C)cn1C` [Compound B-424], the EC50 in assay [1] (setting [5]) and in assay [2] (setting [6]) was 100 to 500 nM in each case.

`Cn1cc(NC(=O)c2nccn2C)cc1C(=O)NCCC(=O)Nc1cn(C)c(C(=O)Nc2cc(C(=O)NCCCC(=O)Nc3cn(C)c(C(=O)NCCC(=O)Nc4cc(C(=O)Nc5cn(C)c(C(=O)NCCC(=O)N6CCC(C#CC#CC7CCNCC7)CC6)n5)n(C)c4)n3)n(CCOCCN)c2)n1` [Compound B-297]: the figures for the EC50 in assay [1] (setting [3]) and in assay [2] (setting [4]) were more than 1000 nM and 100 to 500 nM, respectively.

Regarding `CC(=O)NCCOCCn1cc(NC(=O)c2nc(NC(=O)CCNC(=O)c3cc(NC(=O)c4nccn4C)cn3C)cn2C)cc1C(=O)NCCCC(=O)Nc1cn(C)c(C(=O)NCCC(=O)Nc2cc(C(=O)Nc3cn(C)c(C(=O)NCCC(=O)N4CCC(C#CC#CC5CCNCC5)CC4)n3)n(C)c2)n1` [Compound B-300], the EC50 in assay [1] (setting [3]) and in assay [2] (setting [4]) was less than 100 nM each time.

Turning to `CC#CC#CC1CCN(C(=O)CCNC(=O)c2nc(NC(=O)c3cc(NC(=O)CCNC(=O)c4nc(NC(=O)CCCNC(=O)c5cc(NC(=O)c6nc(NC(=O)CCNC(=O)c7cc(NC(=O)c8nccn8C)cn7C)cn6C)cn5C)cn4C)cn3C)cn2C)CC1` [Compound B-381], the EC50 in assay [1] (setting [3]) and in assay [2] (setting [4]) was 100 to 500 nM each time.

For the compound `Cn1cc(NC(=O)c2nccn2C)cc1C(=O)NCCC(=O)Nc1cn(C)c(C(=O)Nc2cc(C(=O)NC[C@H](N)CC(=O)Nc3cn(C)c(C(=O)NCCC(=O)Nc4cc(C(=O)Nc5cn(C)c(C(=O)NCCC(=O)N6CCC(C#CC#CC7CCNCC7)CC6)n5)n(C)c4)n3)n(C)c2)n1` [Compound B-419], the EC50 was 100 to 500 nM in assay [1] (setting [5]) and less than 100 nM in assay [2] (setting [6]).

Regarding `COCCOCCOCCOCCN(CCOCCOCCOCCOC)C(=O)CCNC(=O)c1nc(NC(=O)c2cc(NC(=O)CCNC(=O)c3nc(NC(=O)CCCNC(=O)c4cc(NC(=O)c5nc(NC(=O)CCNC(=O)c6cc(NC(C)c7nccn7C)cn6C)cn5C)cn4C)cn3C)cn2C)cn1C` (stereo not shown) [Compound B-79], the EC50 in assay [1] (setting [3]) is 100 to 500 nM; in assay [2] (setting [4]) it was more than 1000 nM.

`COCCOCCOCCOCCOCCOCCOc1ccc(C#CCNCCCNC(=O)c2nc(NC(=O)c3cc(NC(=O)CCNC(=O)c4nc(NC(=O)CCCNC(=O)c5cc(NC(=O)c6nc(NC(=O)CCNC(=O)c7cc(NC(=O)c8nccn8C)cn7C)cn6C)cn5C)cn4C)cn3C)cn2C)cc1` [Compound B-412]: the values for the EC50 in assay [1] (setting [5]) and in assay [2] (setting [6]) were more than 1000 nM and less than 100 nM, respectively.

With `CN(CCCNC(=O)OC(C)(C)C)CCCNC(=O)c1nc(NC(=O)c2cc(NC(=O)CCNC(=O)c3nc(NC(=O)CCCNC(=O)c4cc(NC(=O)c5nc(NC(=O)CCNC(=O)c6cc(NC(=O)c7nccn7C)cn6C)cn5C)cn4CCCCCCN=[N+]=[N-])cn3C)cn2C)cn1C` [Compound B-363], the EC50 in assay [1] (setting [3]) and in assay [2] (setting [4]) was less than 100 nM each time.

For `CCCNC(=O)CCNC(=O)c1nc(NC(=O)c2cc(NC(=O)CCNC(=O)c3nc(NC(=O)CCCNC(=O)c4cc(NC(=O)c5nc(NC(=O)CCNC(=O)c6cc(NC(=O)c7nccn7C)cn6C)cn5C)cn4CCOCCNC(=O)OC(C)(C)C)cn3C)cn2C)cn1C` [Compound B-372], the EC50 in assay [1] (setting [3]) and in assay [2] (setting [4]) was less than 100 nM throughout.

Regarding `Cn1cc(NC(=O)c2nc(NC(=O)CCNC(=O)c3cc(NC(=O)c4nccn4C)cn3C)cn2C)cc1C(=O)NCCCC(=O)Nc1cn(C)c(C(=O)NCCC(=O)Nc2cc(C(=O)Nc3cn(C)c(C(=O)NCCC(=O)NCC#CC#Cc4ccccc4)n3)n(C)c2)n1` [Compound B-134], the EC50 in assay [1] (setting [3]) and in assay [2] (setting [4]) was less than 100 nM in each case.

With `CC(=O)NCCn1cc(NC(=O)c2nc(NC(=O)CCNC(=O)c3cc(NC(=O)c4nccn4C)cn3C)cn2C)cc1C(=O)NCCCC(=O)Nc1cn(C)c(C(=O)NCCC(=O)Nc2cc(C(=O)Nc3cn(C)c(C(=O)NCCC(=O)N4CCC(C#CC#CC5CCNCC5)CC4)n3)n(C)c2)n1` [Compound B-270], the EC50 is more than 1000 nM in assay [1] (setting [3]) and 500 to 1000 nM in assay [2] (setting [4]).

`Cn1cc(NC(=O)c2nccn2C)cc1C(=O)NCCC(=O)Nc1cn(C)c(C(=O)Nc2cc(C(=O)NC[C@H](N)CC(=O)Nc3cn(C)c(C(=O)NCCC(=O)Nc4cc(C(=O)Nc5cn(C)c(C(=O)NCCC(=O)N6CCCCC6)n5)n(C)c4)n3)n(C)c2)n1` [Compound B-418]: the EC50 in assay [1] (setting [5]) was 100 to 500 nM; in assay [2] (setting [6]), less than 100 nM.

For `CCCNC(=O)CCNC(=O)c1nc(NC(=O)c2cc(NC(=O)CCNC(=O)c3nc(NC(=O)CCCNC(=O)c4cc(NC(=O)c5nc(NC(=O)CCNC(=O)c6cc(NC(=O)c7nccn7C)cn6C)cn5C)cn4CCCCN=[N+]=[N-])cn3C)cn2C)cn1C` [Compound B-278], the EC50 in assay [1] (setting [3]) and in assay [2] (setting [4]) was less than 100 nM throughout.

With `CCCNC(=O)CCNC(=O)c1nc(NC(=O)c2cc(NC(=O)CCNC(=O)c3nc(NC(=O)CCCNC(=O)c4cc(NC(=O)c5nc(NC(=O)CCNC(=O)c6cc(NC(=O)c7nccn7C)cn6C)cn5C)cn4CCCCCN=[N+]=[N-])cn3C)cn2C)cn1C` [Compound B-285], the EC50 in assay [1] (setting [3]) and in assay [2] (setting [4]) was less than 100 nM throughout.

With `COCCOCCOCCOCCN(CCCCCn1cc(NC(=O)c2nc(NC(=O)CCNC(=O)c3cc(NC(=O)c4nccn4C)cn3C)cn2C)cc1C(=O)NCCCC(=O)Nc1cn(C)c(C(=O)NCCC(=O)Nc2cc(C(=O)Nc3cn(C)c(C(=O)NCCC(=O)NCCOCCOCCOCCN4CCC(C#CC#CC5CCN(C(=O)OC(C)(C)C)CC5)CC4)n3)n(C)c2)n1)CCOCCOCCOCCOC` [Compound B-226], the EC50 in assay [1] (setting [3]) and in assay [2] (setting [4]) was 100 to 500 nM each time.

For `CCOC(=O)CCNC(=O)c1nc(NC(=O)c2cc(NC(=O)CCNC(=O)c3nc(NC(=O)[C@H](N)CCNC(=O)c4cc(NC(=O)c5nc(NC(=O)CCNC(=O)c6cc(NC(=O)c7nccn7C)cn6C)cn5C)cn4C)cn3C)cn2C)cn1C` [Compound B-2], the EC50 in assay [1] (setting [3]) and in assay [2] (setting [4]) was 100 to 500 nM throughout.

For the compound `C=C(NCCC(=O)Nc1cc(C(=O)Nc2cn(C)c(C(=O)NCCC(=O)N3CCC(C#CC#CC4CCN(C(C)=O)CC4)CC3)n2)n(C)c1)c1nc(NC(=O)CCCNC(=O)c2cc(NC(=O)c3nc(NC(=O)CCNC(=O)c4cc(NC(=O)c5nccn5C)cn4C)cn3C)cn2CCCn2cc(COCCOCCOCCOC)nn2)cn1C` [Compound B-402], the EC50 in assay [1] (setting [3]) is 100 to 500 nM; in assay [2] (setting [4]) it was less than 100 nM.

Consider `Cn1cc(NC(=O)c2nc(NC(=O)CCNC(=O)c3cc(NC(=O)c4nccn4C)cn3C)cn2C)cc1C(=O)NCCCC(=O)Nc1cn(C)c(C(=O)NCCC(=O)Nc2cc(C(=O)Nc3cn(C)c(C(=O)NCCC(=O)N4CCN(CCOCCOCCOCCOCCNC(=O)OC(C)(C)C)CC4)n3)n(C)c2)n1` [Compound B-27], for which the EC50 in assay [1] (setting [3]) and in assay [2] (setting [4]) was 100 to 500 nM in each case.

Take `CCCNC(=O)CCNC(=O)c1nc(NC(=O)c2cc(NC(=O)CCNC(=O)c3nc(NC(=O)CCCNC(=O)c4cc(NC(=O)c5nc(NC(=O)CCNC(=O)c6cc(NC(=O)c7nccn7C)cn6C)cn5C)cn4CCCCCCN=[N+]=[N-])cn3C)cn2C)cn1C` [Compound B-58]: the EC50 in assay [1] (setting [3]) and in assay [2] (setting [4]) was less than 100 nM in each case.

For the compound `CCCNC(=O)CCNC(=O)c1nc(NC(=O)c2cc(NC(=O)CCNC(=O)c3nc(NC(=O)CCCNC(=O)c4cc(NC(=O)c5nc(NC(=O)CCNC(=O)c6cc(NC(=O)c7nc(NC=O)cn7C)cn6C)cn5C)cn4C)cn3C)cn2C)cn1C` [Compound B-324], the EC50 was 100 to 500 nM in assay [1] (setting [3]) and less than 100 nM in assay [2] (setting [4]).

Regarding `CC(=O)N1CCC(C#CC#CC2CCN(CCCNC(=O)c3nc(NC(=O)c4cc(NC(=O)CCNC(=O)c5nc(NC(=O)CCCNC(=O)c6cc(NC(=O)c7nc(NC(=O)CCNC(=O)c8cc(NC(=O)c9nccn9C)cn8C)cn7C)cn6C)cn5C)cn4C)cn3C)CC2)CC1` [Compound B-251], the EC50 in assay [1] (setting [3]) and in assay [2] (setting [4]) was less than 100 nM each time.

On to `CCCNC(=O)CCNC(=O)c1nc(NC(=O)c2cc(NC(=O)CCNC(=O)c3nc(NC(=O)CCCNC(=O)c4cc(NC(=O)c5nc(NC(=O)CCNC(=O)c6cc(NC(=O)c7nccn7C)cn6C)cn5C)cn4C)cn3C)cn2CCCCCCN)cn1C` [Compound B-57], for which the EC50 is 100 to 500 nM in assay [1] (setting [3]) and 500 to 1000 nM in assay [2] (setting [4]).

(Values after patent publication US20250368628A1, “METHODS AND COMPOUNDS FOR MODULATING INHERITED GENETIC DISEASES” (Design Therapeutics, Inc., priority 2022, published 2025).)
